Laboratory results from patent US4386103A, “Dichloroamino acid derivatives useful as potent germicidal and fungicidal agents” (Merck & Co., Inc., priority 1981, dated 1983).

Key:
Type in all cases: cell-based
[1] = test system: Salmonella typhimurium; assay: Contact germicidal screen, Salmonella typhimurium ATCC No. 13311
Procedure: (§1) The organisms used in the contact germicidal screen are all maintained as stock cultures on nutrient agar […] 4° C. They are transferred and biochemically diagnosed monthly. The five organisms used are: The media used are: […] Overnight cultures of the test organisms are grown in tryptose phosphate broth. After 15-16 hours, the cultures are centrifuged at […] for 15 minutes, and the supernatant replaced with fresh warm (37° C.) media. After two hours of incubation, the absorbance of the culture at 650 nm is determined and diluted with nutrient broth to 1×10^7 colony forming units per ml (using a previous determined standard curve: colony forming units/ml vs. absorbance at 650). The diluted cultures are maintained at 4°-8° C. throughout the screen. The compounds are weighed into sterile 100 ml volumetric flasks, and immediately before screening dissolved in one of the following buffers: 0.1 M NaOAc pH 4.6 or 0.1 M NaH2 PO4 pH 7.0. If solubility poses a problem, 10-30% methanol is used to effect solution. Two denaturing agents are also tested: […] Horse Serum restored with 100 ml distilled water and 10% Trition×100. When used, 2.5 ml of the denaturing agent is mixed with 2.5 ml of double strength test solution thirty minutes before the bacterial suspension is added. The screen is initiated when 0.2 ml of the bacterial suspension is added to 5.0 ml of the test solution contained in a sterile 25 ml glass stoppered flask. At intervals of 0.5, 2.5, 5.0, 10.0 and 15.0 minutes, a loopful of the inoculated test solution is subcultured into 5 ml of sterile nutrient broth and mixed with a vortex, the high dilution serving to stop the action of the compound. All of the subculture tubes are incubated at 37° C. and checked for signs of growth by turbidity at 1, 3, 5 and 7 days. The earliest subculture time at which no growth is present is considered the endpoint and is recorded as the sterilization time. An aliquot of 0.2 ml of the diluted culture is transferred to 5 ml of buffer to simulate 0.2 ml in 5 ml of test solution. (a) Purity: A loopful of the inoculated buffer is streaked onto nutrient agar to check colony morphology and lack of contaminants. (b) Viability: A loopful of the inoculated buffer is subcultured to 5 ml of nutrient broth as in the screen and incubated at 37° C. for 24 hours. (c) Dilution of the Test Solution: A loopful of the test solution is transferred to a 5 ml tube of nutrient broth, and a loopful of the inoculated buffer is transferred to the same tube of broth. […] (d) Purity of Organisms in the Test Solution: After the 15 minute subculture, a loopful of the inoculated test solution is streaked onto nutrient agar to insure that contamination has not occurred during the screen. (e) lack of Bactericidal Activity of Buffers and Other Solvents: Before a buffer or other solvent is used as a diluent, it is screened against the five organisms to insure that the buffer or solvent has no antibacterial activity itself.

[2] = test system: Rhizopus oryzae; assay: Contact fungicidal screen, Rhizopus oryzae; details: 0.1M NaOAc pH 4.6
Procedure: The organisms used in the Contact Fungicidal Screen are a dermatophyte, trychophyton mentagrophytes, frequently associated with athlete's foot; a yeast, Candida albican, causative agent of thrush and vaginitis; a phycomycete, Rhizopus oryzae, commonly known as black bread mold; an ascomycete, Aspergillus fumagatis, found in chicken droppings and causing lung infections; and another dermatophyte, Microsporum canis, which causes ringworm. These organisms are maintained as stock cultures at 4° C. on agar slants of the following composition: dextrose 2%, Neopeptone (Difco) 1%, agar 2%. Fluid medium of the same nutrient composition (without agar) was used to test the viability of the organisms after exposure to the fungicide. This medium is also known as Sabouraud's medium.
[…]. The mycelial mat is removed from the surface of the agar using a sterile spatula. It is transferred to a heat sterilized glass tissue grinder and macerated with 25 ml of sterile physiological saline. The suspension is then filtered through sterile glass wool. The density of the sporangia spore suspension is determined by counting in a hemacytometer. The suspension is stored at 4° C. until it was used, at which time it was diluted with sterile physiological saline to a density of 5×10^6 spores per ml.
The compounds are weighed into heat sterilized 100 ml volumetric flasks and immediately before screening dissolved in 0.1 M NaOAc pH 4.6 buffer (test solutions).
The Aspergillus, Candida, Microsporum and Rhizopus species are screened in a slightly different manner. Basically, the procedure for the Contact Germicidal Efficiency Screen is utilized. After the test solutions are made up, 5 ml aliquots are pipetted into heat sterilized 25 ml glass stoppered erlenmeyer flasks. The screen is initiated when 0.5 ml of the 5×10^6 cell (spore) per ml suspension is added to the flask containing 5 ml of the test solution. At intervals of 0.5, 2.5, 5.0, 10.0 and 15.0 minutes, a 4 mm loopful of the inoculated test solution is subcultured into 7 mL of sterile fluid Sabouraud's medium and mixed on a vortex, the high dilution serving to stop the action of the compound. The subculture tubes are incubated at 25°-30° C. for ten days with daily observation for mycelial growth. The earliest subculture time at which no growth is present is considered the endpoint and is recorded as the sterilization time.
To insure the viability of the culture, a 0.5 ml aliquot of the 5×10^6 cells (spores) per ml suspension is transferred to 5 ml of the pH 4.6 buffer. A loopful of the inoculated buffer is then subcultured to 7 ml of fluid Sabouraud's medium and incubated at 25°-30° C. for ten days. To insure that the dilution of the test solution into the subculture medium does stop the action, a loopful of the test solution and a loopful of the inoculated buffer are transferred into the same subculture tube. This tube is also incubated at 25°-30° C. for ten days.

[3] = test system: Staphylococcus epidermidis; assay: Contact germicidal screen, Staphylococcus epidermidis ATCC No. 12228
Procedure: as §1

[4] = 10.0+ PPM, 0.1M NaOAc pH 4.6, screened simultaneously with four other compounds
[5] = 300 PPM with 50% Horse Serum, 0.1M NaOAc pH 4.6
[6] = 300 PPM with 50% Triton X100, 0.1M NaOAc pH 4.6
[7] = 308.0 PPM, Triton X100 (10% solution):pH 4.6 buffer 1:1
[8] = 308.0 PPM, horse serum:pH 4.6 buffer 1:1
[9] = 1000 PPM with 50% Horse Serum, 0.1M NaOAc pH 4.6
[10] = 1000.0 PPM, horse serum:pH 4.6 buffer 1:1
[11] = 1012.3 PPM, 0.1M NaH2PO4 pH 7.0
[12] = 338.7 PPM, horse serum:pH 4.6 buffer 1:1
[13] = 1024.0 PPM, horse serum:pH 4.6 buffer 1:1
[14] = 1070.3 PPM, 0.1M NaH2PO4 pH 7.0

Row | SMILES | Sterilization Time [1, 4] [min] | Sterilization Time (summary) ([1]; 10 PPM, 0.1M NaOAc pH 4.6) [min] | Sterilization Time (summary) ([1]; 100 PPM, 0.1M NaOAc pH 4.6) [min] | Sterilization Time (summary) [1, 5] [min] | Sterilization Time (summary) [1, 6] [min] | Sterilization Time [1, 7] [min] | Sterilization Time (summary) [1, 9] [min] | Sterilization Time (summary) ([1]; 1000 PPM, 0.1M NaOAc pH 4.6) [min] | Sterilization Time ([2]; 10 PPM) [min] | Sterilization Time ([2]; 100 PPM) [min] | Sterilization Time ([2]; 1000 PPM) [min] | Sterilization Time [3, 4] [min] | Sterilization Time (summary) ([3]; 10 PPM, 0.1M NaOAc pH 4.6) [min] | Sterilization Time (summary) ([3]; 100 PPM, 0.1M NaOAc pH 4.6) [min] | Sterilization Time (summary) [3, 5] [min] | Sterilization Time (summary) [3, 6] [min] | Sterilization Time [3, 7] [min] | Sterilization Time (summary) [3, 9] [min] | Sterilization Time (summary) ([3]; 1000 PPM, 0.1M NaOAc pH 4.6) [min] | further results
1 | CC(C)(CCC(=O)O)N(Cl)Cl [(III), 4-Dichloroamino-4-methylvaleric acid] | 2.5 | 2.5 | 0.5 | 2.5 | 0.5 | 0.5 | 0.5 | 0.5 | 15 | 15 | 10.0 | 10.0 | 10.0 | 0.5 | 10.0 | 2.5 | 2.5 | 2.5 | 0.5 | Sterilization Time ([1]; 9.6 PPM, 0.1M NaOAc pH 4.6): 2.5 min; Sterilization Time ([1]; 9.7 PPM, 0.1M NaH2PO4 pH 7.0): 15 min; Sterilization Time ([1]; 102.2 PPM, 0.1M NaOAc pH 4.6): 0.5 min; Sterilization Time ([1]; 103.5 PPM, 0.1M NaH2PO4 pH 7.0): 5.0 min; Sterilization Time [1, 8]: 2.5 min; Sterilization Time [1, 10]: 0.5 min; Sterilization Time ([1]; 1007.7 PPM, 0.1M NaOAc pH 4.6): 0.5 min; Sterilization Time [1, 11]: 0.5 min; Sterilization Time ([3]; 9.6 PPM, 0.1M NaOAc pH 4.6): 5.0 min; Sterilization Time ([3]; 9.7 PPM, 0.1M NaH2PO4 pH 7.0): 15 min; Sterilization Time ([3]; 102.2 PPM, 0.1M NaOAc pH 4.6): 0.5 min; Sterilization Time ([3]; 103.5 PPM, 0.1M NaH2PO4 pH 7.0): 15 min; Sterilization Time [3, 8]: 10.0 min; Sterilization Time [3, 10]: 2.5 min; Sterilization Time ([3]; 1007.7 PPM, 0.1M NaOAc pH 4.6): 0.5 min; Sterilization Time [3, 11]: 5.0 min
2 | CC(C)(COC(=O)CCC(=O)O)N(Cl)Cl [(IV), 2-Dichloroamino-2-methylpropylhemisuccinate] | 2.5 | 2.5 | 0.5 | 10.0 | 0.5 | 0.5 | 2.5 | 0.5 | 15 | 15 | 15 | 10.0 | 10.0 | 2.5 | 15 | 2.5 | 2.5 | 2.5 | 0.5 | Sterilization Time ([1]; 8.6 PPM, 0.1M NaOAc pH 4.6): 5.0 min; Sterilization Time ([1]; 9.8 PPM, 0.1M NaH2PO4 pH 7.0): 15 min; Sterilization Time ([1]; 106.2 PPM, 0.1M NaOAc pH 4.6): 0.5 min; Sterilization Time ([1]; 149.7 PPM, 0.1M NaH2PO4 pH 7.0): 15.0 min; Sterilization Time [1, 12]: 10.0 min; Sterilization Time ([1]; 1008.0 PPM, 0.1M NaOAc pH 4.6): 0.5 min; Sterilization Time [1, 13]: 2.5 min; Sterilization Time [1, 14]: 0.5 min; Sterilization Time ([3]; 8.6 PPM, 0.1M NaOAc pH 4.6): 15.0 min; Sterilization Time ([3]; 9.8 PPM, 0.1M NaH2PO4 pH 7.0): 15 min; Sterilization Time ([3]; 106.2 PPM, 0.1M NaOAc pH 4.6): 2.5 min; Sterilization Time ([3]; 149.7 PPM, 0.1M NaH2PO4 pH 7.0): 15 min; Sterilization Time [3, 12]: 15 min; Sterilization Time ([3]; 1008.0 PPM, 0.1M NaOAc pH 4.6): 0.5 min; Sterilization Time [3, 13]: 2.5 min; Sterilization Time [3, 14]: 10.0 min
